This is an account of results in patent publication US11535630B2, “Apelin receptor (APJ) agonists and uses thereof” (Research Triangle Institute, priority 2015, dated 2022).

The structures appear in SMILES notation.

The test addresses T1, apelin receptor (APJ) (Homo sapiens, UniProt P35414).
T1 sequence (P35414 1-380): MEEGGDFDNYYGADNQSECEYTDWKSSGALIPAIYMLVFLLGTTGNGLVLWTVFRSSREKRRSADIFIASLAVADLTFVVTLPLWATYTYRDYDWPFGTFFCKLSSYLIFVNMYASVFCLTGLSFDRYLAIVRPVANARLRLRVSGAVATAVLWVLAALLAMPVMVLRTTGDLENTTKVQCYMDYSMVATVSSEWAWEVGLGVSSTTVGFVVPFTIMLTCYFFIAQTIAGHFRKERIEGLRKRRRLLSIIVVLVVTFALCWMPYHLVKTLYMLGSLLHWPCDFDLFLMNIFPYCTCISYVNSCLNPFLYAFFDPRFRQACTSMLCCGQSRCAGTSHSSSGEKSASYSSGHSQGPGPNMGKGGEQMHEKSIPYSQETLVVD
The test is described as follows: In vitro apelin agonist activity (methods of Giddings et al., Apelin-13 as positive control). It is filed as cell-based. The note with it: in vitro apelin agonist activity, methods of Giddings et al., Apelin-13 as positive control; read-out: EC50 (nM) Ave. From the text: Characterization of the Apelin Agonist Activity of the Compounds
1:39-47, the contents of which are hereby incorporated by reference in its entirety. Using the methods described in Giddings et al. and Apelin-13 as a positive control.
One may read the EC50 as the midpoint of the concentration-response curve. As to `COc1cccc(F)c1-c1cc(C(=O)N[C@@H](CCN2CCCCC2)CC(=O)NC2CCC2)nn1C1CCCC1` [compound 372, (3S)-N-cyclobutyl-3-{[1-cyclopentyl-5-(2-fluoro-6-methoxyphenyl)-1H-pyrazol-3-yl]formamido}-5-(piperidin-1-yl)pentanamide], the concentration for a half-maximal effect (EC50) was 90 nM.
With `O=C(C[C@H](CCN1CCCCC1)NC(=O)c1cc(-c2ccccn2)n(C2CCCC2)n1)NC1CCC1` [compound 375, (3S)-N-cyclobutyl-3-{[1-cyclopentyl-5-(pyridin-2-yl)-1H-pyrazol-3-yl]formamido}-5-(piperidin-1-yl)pentanamide], the concentration giving a half-maximal response (EC50) was more than 10000 nM.
`COc1cccc(OC)c1-c1cc(C(=O)N[C@@H](CC2CC2)C(=O)NC2CCC2)nn1C1CCCC1` [compound 376, (2S)-N-cyclobutyl-2-{[1-cyclopentyl-5-(2,6-dimethoxyphenyl)-1H-pyrazol-3-yl]formamido}-3-cyclopropylpropanamide]: the EC50 is more than 10000 nM.
Then `COc1cccc(OC)c1-c1cc(C(=O)N[C@@H](CC2CCC2)C(=O)NC2CCC2)nn1C1CCCC1` [compound 377, (2S)-N,3-dicyclobutyl-2-{[1-cyclopentyl-5-(2,6-dimethoxyphenyl)-1H-pyrazol-3-yl]formamido}propanamide], with more than 10000 nM; and `O=C(C[C@H](CCN1CCCCC1)NC(=O)c1cc(-c2cscn2)n(C2CCCC2)n1)NC1CCC1` [compound 378, (3S)-N-cyclobutyl-3-{[1-cyclopentyl-5-(1,3-thiazol-4-yl)-1H-pyrazol-3-yl]formamido}-5-(piperidin-1-yl)pentanamide], with 9390 nM.
For the molecule `COc1cccc(OC)c1-c1cc(C(=O)N[C@@H](CCc2ccccc2)CC(=O)Nc2nccs2)nn1C1CCCC1` [compound 380, (3S)-3-{[1-cyclopentyl-5-(2,6-dimethoxyphenyl)-1H-pyrazol-3-yl]formamido}-5-phenyl-N-(1,3-thiazol-2-yl)pentanamide], the EC50 came to 94 nM.
On to `COc1cccc(OC)c1-c1cc(C(=O)N[C@@H](CCc2ccccc2)CC(=O)Nc2nnn[nH]2)nn1C1CCCC1` [compound 381, (3S)-3-{[1-cyclopentyl-5-(2,6-dimethoxyphenyl)-1H-pyrazol-3-yl]formamido}-5-phenyl-N-(1H-1,2,3,4-tetrazol-5-yl)pentanamide], for which the EC50 was 647 nM.
As for `COc1cccc(OC)c1-c1cc(C(=O)N[C@@H](CCc2ccccc2)CC(=O)NCc2nccs2)nn1C1CCCC1` [compound 382, (3S)-3-{[1-cyclopentyl-5-(2,6-dimethoxyphenyl)-1H-pyrazol-3-yl]formamido}-5-phenyl-N-(1,3-thiazol-2-ylmethyl)pentanamide], the figure is 3440 nM; as for `COc1cccc(OC)c1-c1cc(C(=O)N[C@@H](CCc2ccccc2)CC(=O)NCc2nnn[nH]2)nn1C1CCCC1` [compound 383, (3S)-3-{[1-cyclopentyl-5-(2,6-dimethoxyphenyl)-1H-pyrazol-3-yl]formamido}-5-phenyl-N-(1H-1,2,3,4-tetrazol-5-ylmethyl)pentanamide], 5180 nM.
As for `COc1cccc(OC)c1-c1cc(C(=O)N[C@@H](CC2CC2)C(=O)O)nn1C1CCCC1` [compound 385, (2S)-2-{[1-cyclopentyl-5-(2,6-dimethoxyphenyl)-1H-pyrazol-3-yl]formamido}-3-cyclopropylpropanoic acid], the figure is more than 10000 nM; as for `COc1cccc(OC)c1-c1cc(C(=O)N[C@@H](CC2CCC2)C(=O)O)nn1C1CCCC1` [compound 386, (2S)-3-cyclobutyl-2-{[1-cyclopentyl-5-(2,6-dimethoxyphenyl)-1H-pyrazol-3-yl]formamido}propanoic acid], 6170 nM.
`COc1cccc(OC)c1-c1cc(C(=O)N[C@@H](CCc2ccccc2)C(=O)NCc2nnn[nH]2)nn1C1CCCC1` [compound 387, (2S)-2-{[1-cyclopentyl-5-(2,6-dimethoxyphenyl)-1H-pyrazol-3-yl]formamido}-4-phenyl-N-(1H-1,2,3,4-tetrazol-5-ylmethyl)butanamide]: the EC50 stood at 8720 nM.
